In test [1] the test system is OsGREP1 transcript levels. Nature of the test: RNA gel blot of OsGREP1 mRNA in deepwater rice stem sections treated with gibberellin. Also noted: species or system Oryza sativa. Particulars: 50 μM GA3, stem sections, meristematic zone, within 30 minutes and again 15 h after onset. As to the method:
Analysis of hormone and inhibitor effects was performed using excised stem segments containing the youngest growth-responsive internode (Raskin & Kende, 1984). Growth of the stem sections was induced by application of 50 μM GA3 for the times indicated. To inhibit protein synthesis, stem sections were incubated in aqueous solutions of cycloheximide for the times indicated. Plant tissue for RNA extraction was harvested on ice and immediately after harvest frozen in liquid nitrogen. Meristematic tissue was harvested from 0 to 5 mm above the second youngest node, i.e. the intercalary meristem (IM). […]
To determine gene expression under different conditions and in different rice tissues, mRNA abundance of OsGREP1 was analyzed by RNA gel blot hybridization. […]
mRNA abundance of OsGREP1 was also analyzed in different tissues of adult rice plants and seedlings and in suspension-cultured rice cells by RNA gel blot analysis (FIG. 7). […] OsGREP1 mRNA can also be detected in suspension-cultured cells but at lower levels than in all other tissues. […] Stem sections containing the IM and EZ of the internode were treated with 50 μM GA3 and analyzed for expression of OsGREP1 by RNA gel blot hybridization 0, […], 1, 3, 6 and 15 h after treatment (FIG. 8).

Test [2] concerns protein synthesis. Particulars: maize, 20 μM CHX; cited from earlier work.
Test [3] has as its system protein synthesis. Particulars: alfalfa, 150 μM; cited from earlier work.
For the next test, the system named is OsGREP1 transcripts. Nature of the test: RNA gel blot of OsGREP1 mRNA in deepwater rice internode sections treated with cycloheximide. Also on record: species or system Oryza sativa. As to the method:
Analysis of hormone and inhibitor effects was performed using excised stem segments containing the youngest growth-responsive internode (Raskin & Kende, 1984). Growth of the stem sections was induced by application of 50 μM GA3 for the times indicated. To inhibit protein synthesis, stem sections were incubated in aqueous solutions of cycloheximide for the times indicated. Plant tissue for RNA extraction was harvested on ice and immediately after harvest frozen in liquid nitrogen. Meristematic tissue was harvested from 0 to 5 mm above the second youngest node, i.e. the intercalary meristem (IM). Cells which are predominately involved in elongation were harvested from 5 to 15 mm above the second youngest node, i.e. the elongation zone (EZ) and differentiated tissue was harvested from the oldest part of the internode below the youngest node, i.e. the differentiation zone (DZ).
To determine gene expression under different conditions and in different rice tissues, mRNA abundance of OsGREP1 was analyzed by RNA gel blot hybridization. Total RNA was isolated using the TRIzol reagent (Gibco BRL) and precipitated with 4M LiCl as described (Puissant & Houdebine, 1990). […]
Gene expression of OsGREP1 was also determined by measuring mRNA abundance in IM sections of deepwater rice internodes treated with cycloheximide (CHX) at 0, 0.02, 2, and 20 μg/ml (FIG. 9). […]

The test system of the next test is Arabidopsis thaliana. Nature of the test: Phenotypic characterization of transgenic plants transformed with OsPSK (digital imaging of rosette and inflorescence). In kind it is in vivo. The protocol: Of 11 different transgenic plant lines of Arabidopsis thaliana (named AE0017, AE0018, AE0019, AE0021, AE0022, AE0023, AE0024, AE0025, AE0026, AE0027 and Os-PSK) 500 mg of seeds is placed in 50 ml plastic tubes. 27 ml of a 0.2% agar solution is added and mixed to suspend the seeds. The said tubes are stored at 4° C. for 3 days to release dormancy. Subsequently, the suspension of seeds was evenly dispensed as drops of 50 μl on a 50 cm by 30 cm tray containing a mixture of sand and soil in a ratio of 1 to 2.
The trays were placed in the greenhouse under the following conditions: 22° C. at day time, 18° C. at night, 60% RH, 20 hours of photoperiod, subirrigation once a day with water during 15 min. The 4th day and the 10th day after sowing, the seedlings were sprayed with an herbicide solution. The 14th day after sowing, 30 resistant seedlings of each transgenic line were transplanted in individual pots with a diameter of 10 cm containing a mixture of sand and peat in a ratio of 1 to 3.
Said pots are then placed in the greenhouse under the same conditions as described for the trays. The pots are subirrigated during 15 min. once a week, or more if needed. The 14th, 18th, 21st, 28th, 32nd and 39th day after sowing, the rosettes of each plant were photographed using a digital camera and the pictures were stored for further analysis.
The 32nd, 38th, 41 st, 46th, 49th, and 53rd day after sowing, the inflorescence of each plant was photographed equally using a digital camera and the pictures were stored for further analysis. The number of pixels corresponding to plant tissues was recorded on each picture, converted to square cm and used as a measurement of plant size.

Data on three molecules can be found in US20040221332A1, “Plant growth regulating genes, proteins and uses thereof” (priority 2001, published 2004).

Like-named read-outs stand apart in the source and are kept apart here.

As for `C=C1C[C@]23C[C@@]1(O)CC[C@H]2[C@@]12C=C[C@H](O)[C@@](C)(C(=O)O1)[C@H]2[C@@H]3C(=O)O` [GA3, gibberellic acid], the OsGREP1 transcript levels entry was “slight and transient increase” in test [1]; “induced” in test [1] (listed as GA).
As for `C[C@@H]1C[C@@H]([C@H](O)CC2CC(=O)NC(=O)C2)C(=O)[C@@H](C)C1` [cycloheximide], the “inhibition of protein synthesis” value is on record as 23% in the test on protein synthesis [2] and 90% with protein synthesis [3]. For the same molecule, in the test with OsGREP1 transcripts (IM sections of deepwater rice internodes, 20 μg/ml (corresponds to 70 μM) CHX), the OsGREP1 transcripts entry is “induced”. Also, the “cycloheximide concentration at which OsGREP1 transcripts accumulate” value in the test on OsGREP1 transcripts (stem sections of deepwater rice, 0 to 20 μg/ml tested) was at least 0.2 µg/mL.

B1: OsPSK: rice growth regulating polypeptide, prepro-phytosulfokine (SEQ ID NO 104/105), overexpressed in transgenic Arabidopsis under sunflower ubiquitin promoter (protein, listed as Oryza sativa)
chain: MVNPGRTARALCLLCLALLLLGQDTHSRKLLLQEKHSHGVGNGTTTTQEPSRENGGSTGSNNNGQLQFDSAKWEEFHTDYIYTQDVKNP
B1: the “ratio between size of inflorescence before harvest and maximal measured size of the rosette” value with Arabidopsis thaliana (OsPSK plants vs other transgenic plant lines in the same experiment) is listed as “significantly higher”. Also, the rosette size result with Arabidopsis thaliana (OsPSK transgenic line vs other transgenic lines) is “slightly bigger”. Moreover, the plant size result with Arabidopsis thaliana (OsPSK transgenic line vs the other transgenic plant lines in the experiment) is “on average the biggest plants”.
